{"source": "patent US20250195352A1", "about": "“LIPID FORMULATIONS CONTAINING BIOACTIVE FATTY ACIDS AND OTHER BIOACTIVE AGENTS” (Sciadonics, Inc., priority 2022, published 2025)", "origin": "cited, not measured here", "key": {"PPAR receptors": {"system": "PPAR receptors", "settings": "unmetabolized SA; Berger 2002"}, "[1]": {"system": "cultured human skin keratinocytes", "settings": "purified SA taken up by cultured human skin keratinocytes; Berger 2002"}}}
{"smiles": "CCCCCC=CCC=CCCCCC=CCCCC(=O)O", "note": "[SA, 5,11,14-eicosatrienoic acid]", "values": [{"measurement": "binding to PPAR receptors", "setting": "PPAR receptors", "value": "does not bind"}, {"measurement": "ARA levels", "setting": "[1]", "value": "reduced"}, {"measurement": "prostaglandin E2 (PGE2) levels", "setting": "[1]", "value": "reduced"}]}
